Reference: US7173004B2, “Macrocyclic isoquinoline peptide inhibitors of hepatitis C virus” (Bristol-Myers Squibb Company, priority 2003, dated 2007)

Target: T1, HCV NS3/4A protease complex, BMS strain (genotype 1a) (UniProt P27958, C1454S/C1711G, species not given/STRAIN_BMS)
T1 construct: b1001: DNA encoding the recombinant HCV NS3/4A protease complex (amino acids 1027 to 1711) ... a three-lysine solubilizing tail was added at the 3′-end of the NS4A coding region; fused on or other part: Three-lysine solubilising tail at the C-terminus of NS4A; A His tag is implied by the pET21b vector and Ni-NTA purification
Experiment: Recombinant HCV NS3/4A protease complex FRET peptide assay, BMS strain
Format: biochemical
Details: NS3/4A BMS strain; activity range symbols
How it was run: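 Recombinant NS3/4A (aa 1027–1711) from H77C, J4L6S or BMS strains, with C1454S and C1711G mutations and three-lysine tail, expressed in E. coli and Ni-NTA/gel-filtration purified to >90%. Inhibition of cleavage of a FRET peptide substrate measured.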

**Q.** How did the IC50 turn out when `CC(C)(C)COC(=O)N[C@H]1CCCCC/C=C\[C@@H]2C[C@@]2(C(=O)NS(=O)(=O)C2CC2)NC(=O)[C@@H]2C[C@@H](Oc3nccc4ccccc34)CN2C1=O` [Compound 13, [4-Cyclopropanesulfonylaminocarbonyl-18-(isoquinolin-1-yloxy)-2,15-dioxo-3,16-diaza-tricyclo[14.3.0.0^4,6]nonadec-7-en-14-yl]-carbamic acid 2,2-dimethyl-propyl ester] was run?
**A.** < 50 nM

**Q.** For `COc1ccc2c(O[C@@H]3C[C@H]4C(=O)N[C@]5(C(=O)NS(=O)(=O)C6CC6)C[C@H]5/C=C\CCCCC[C@H](NC(=O)OC(C)(C)C)C(=O)N4C3)nccc2c1` [Compound 17B, [4-Cyclopropanesulfonylaminocarbonyl-18-(6-methoxy-isoquinolin-1-yloxy)-2,15-dioxo-3,16-diaza-tricyclo[14.3.0.0^4,6]nonadec-7-en-14-yl]-carbamic acid tert-butyl ester], which IC50 is on record?
**A.** < 50 nM

**Q.** With `CCC1(S(=O)(=O)NC(=O)C23CC2C=CCCCOC(C)C(NC(=O)OC(C)C)C(=O)N2CC(Oc4nccc5cc(OC)ccc45)CC2C(=O)N3)CC1` (stereo not drawn) [Compound 72] as the molecule, how does the IC50 read?
**A.** < 50 nM
